Source: PubChem BioAssay AID220 (DTP/NCI, 2004)
Several values for one entry are separate records, joined by “and”; a condition that tells them apart may be missing. Identical values can stand only once. Results filed as inconclusive are left out.

Test system: CD8F1 mice, subcutaneous mammary adenocarcinoma, T/C%
Test: NCI In Vivo Anticancer Drug Screen. Data for tumor model Mammary Adenocarcinoma CD8F1 (subcutaneous) in CD8F1
Conditions: higher = larger tumour
Outline: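 Tumor-bearing mice, transplantable model; readout survival or tumor size; value = treated (T) / vehicle control (C).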

[1] = endpoint: median tumor weight change, dose: 62.5 mg/kg/injection, schedule: Q01DX001 (ip), vehicle: saline with Tween-80
[2] = endpoint: median tumor weight change, dose: 125.0 mg/kg/injection, schedule: Q01DX001 (ip), vehicle: saline with Tween-80
[3] = endpoint: median tumor weight change, dose: 250.0 mg/kg/injection, schedule: Q01DX001 (ip), vehicle: saline with Tween-80
[4] = endpoint: median tumor weight change, dose: 500.0 mg/kg/injection, schedule: Q01DX001 (ip), vehicle: saline with Tween-80
[5] = endpoint: mean tumor weight, dose: 50.0 mg/kg/injection, schedule: Q07DX006 (ip), vehicle: saline
[6] = endpoint: median tumor weight (est.), dose: 12.5 mg/kg/injection, schedule: Q07DX005 (ip), vehicle: saline with Tween-80

Compound: C=COC(=O)C(Cc1ccccc1)NC(=O)OCc1ccccc1 (configuration not stated)
- T/C [1]: 103 % of control
- T/C [2]: 58 % of control
- T/C [3]: 46 % of control
- T/C [4]: 33 % of control
- T/C (endpoint: median tumor weight change, dose: 1000.0 mg/kg/injection, schedule: Q01DX001 (ip), vehicle: saline with Tween-80): 75 % of control

Compound: COC(=O)C12OCC34C(CC5C(C)=CC(=O)C(O)C5(C)C3C(O)C1O)OC(=O)C(OC(=O)CC(C)C)C24 (configuration not stated)
- T/C (endpoint: median tumor weight (est.), dose: 0.13 mg/kg/injection, schedule: Q07DX005 (ip), vehicle: saline + alcohol): 107 % of control
- T/C (endpoint: median tumor weight (est.), dose: 0.5 mg/kg/injection, schedule: Q07DX005 (ip), vehicle: saline + alcohol): 82 % of control
- T/C (endpoint: median tumor weight (est.), dose: 1.0 mg/kg/injection, schedule: Q07DX005 (ip), vehicle: saline + alcohol): 64 % of control
- T/C (endpoint: median tumor weight (est.), dose: 2.0 mg/kg/injection, schedule: Q07DX005 (ip), vehicle: saline + alcohol): 47 % of control

Compound: CC(=O)N(C)O
- T/C [2]: 80 % of control
- T/C [3]: 63 % of control
- T/C [4]: 50 % of control

Compound: COc1ccc2[nH]c3ccc4cc[n+](CCN5CCC(C6CCN(CC[n+]7ccc8ccc9[nH]c%10ccc(OC)cc%10c9c8c7)CC6)CC5)cc4c3c2c1
- T/C (endpoint: median tumor weight change, dose: 62.5 mg/kg/injection, schedule: Q01DX001 (ip), vehicle: Klucel (hydroxypropylcellulose) (HPC)): 58 % of control
- T/C (endpoint: median tumor weight change, dose: 125.0 mg/kg/injection, schedule: Q01DX001 (ip), vehicle: Klucel (hydroxypropylcellulose) (HPC)): 68 % of control

Compound: O=NN(CCCl)C(=O)NC1CCCCC1
- T/C (endpoint: mean tumor weight (est.), dose: 25.0 mg/kg/injection, schedule: Q07DX003 (ip), vehicle: saline + alcohol): 88 % of control
- T/C (endpoint: mean tumor weight (est.), dose: 50.0 mg/kg/injection, schedule: Q07DX003 (ip), vehicle: saline + alcohol): 28 % of control
- T/C (endpoint: mean tumor weight, dose: 6.25 mg/kg/injection, schedule: Q01DX009 (ip), vehicle: saline): 78 % of control
- T/C (endpoint: mean tumor weight, dose: 12.5 mg/kg/injection, schedule: Q01DX009 (ip), vehicle: saline): 75 % of control
- T/C (endpoint: mean tumor weight, dose: 12.5 mg/kg/injection, schedule: Q07DX006 (ip), vehicle: saline + alcohol): 74 % of control
- T/C (endpoint: mean tumor weight, dose: 25.0 mg/kg/injection, schedule: Q01DX009 (ip), vehicle: saline): 28 % of control
- T/C (endpoint: mean tumor weight, dose: 25.0 mg/kg/injection, schedule: Q07DX006 (ip), vehicle: saline + alcohol): 44 % of control
- T/C (endpoint: mean tumor weight, dose: 25.0 mg/kg/injection, schedule: Q07DX006 (ip), vehicle: saline): 61 % of control
- T/C (endpoint: mean tumor weight, dose: 50.0 mg/kg/injection, schedule: Q07DX006 (ip), vehicle: saline + alcohol): 11 % of control
- T/C [5]: 220 % of control
- T/C (endpoint: median tumor weight (est.), dose: 8.0 mg/kg/injection, schedule: Q07DX005 (ip), vehicle: Klucel (hydroxypropylcellulose) (HPC)): 99 % of control
- T/C (endpoint: median tumor weight (est.), dose: 16.0 mg/kg/injection, schedule: Q07DX005 (ip), vehicle: Klucel (hydroxypropylcellulose) (HPC)): 30 % of control
- T/C (endpoint: median tumor weight (est.), dose: 32.0 mg/kg/injection, schedule: Q07DX005 (ip), vehicle: Klucel (hydroxypropylcellulose) (HPC)): 29 % of control
- T/C (endpoint: median tumor weight change, dose: 4.0 mg/kg/injection, schedule: Q01DX001 (ip), vehicle: Klucel (hydroxypropylcellulose) (HPC)): 66 % of control
- T/C (endpoint: median tumor weight change, dose: 8.0 mg/kg/injection, schedule: Q01DX001 (ip), vehicle: Klucel (hydroxypropylcellulose) (HPC)): 73 % of control
- T/C (endpoint: median tumor weight change, dose: 15.0 mg/kg/injection, schedule: Q01DX001 (ip), vehicle: Klucel (hydroxypropylcellulose) (HPC)): 91 % of control
- T/C (endpoint: median tumor weight change, dose: 16.0 mg/kg/injection, schedule: Q01DX001 (ip), vehicle: Klucel (hydroxypropylcellulose) (HPC)): 55 % of control
- T/C (endpoint: median tumor weight change, dose: 30.0 mg/kg/injection, schedule: Q01DX001 (ip), vehicle: Klucel (hydroxypropylcellulose) (HPC)): 34 % of control
- T/C (endpoint: median tumor weight change, dose: 32.0 mg/kg/injection, schedule: Q01DX001 (ip), vehicle: Klucel (hydroxypropylcellulose) (HPC)): 40 % of control
- T/C (endpoint: median tumor weight change, dose: 60.0 mg/kg/injection, schedule: Q01DX001 (ip), vehicle: Klucel (hydroxypropylcellulose) (HPC)): -23 % of control
- T/C (endpoint: median tumor weight change, dose: 80.0 mg/kg/injection, schedule: Q01DX001 (ip), vehicle: Klucel (hydroxypropylcellulose) (HPC)): 17 % of control

Compound: CC(/C=C/c1ccccc1)=Nc1ccccc1
- T/C [2]: 107 % of control
- T/C [3]: 97 % of control
- T/C [4]: 99 % of control

Compound: C#C[C@]1(O)CC[C@H]2[C@@H]3CCc4cc(O)ccc4[C@H]3CC[C@@]21C
- T/C (endpoint: median tumor weight change, dose: 12.5 mg/kg/injection, schedule: Q01DX001 (ip), vehicle: Klucel (hydroxypropylcellulose) (HPC)): 92 % of control
- T/C (endpoint: median tumor weight change, dose: 25.0 mg/kg/injection, schedule: Q01DX001 (ip), vehicle: Klucel (hydroxypropylcellulose) (HPC)): 78 % of control
- T/C (endpoint: median tumor weight change, dose: 50.0 mg/kg/injection, schedule: Q01DX001 (ip), vehicle: Klucel (hydroxypropylcellulose) (HPC)): 75 % of control
- T/C (endpoint: median tumor weight change, dose: 56.0 mg/kg/injection, schedule: Q01DX001 (ip), vehicle: Klucel (hydroxypropylcellulose) (HPC)): 60 % of control
- T/C (endpoint: median tumor weight change, dose: 100.0 mg/kg/injection, schedule: Q01DX001 (ip), vehicle: Klucel (hydroxypropylcellulose) (HPC)): 63 % of control
- T/C (endpoint: median tumor weight change, dose: 112.0 mg/kg/injection, schedule: Q01DX001 (ip), vehicle: Klucel (hydroxypropylcellulose) (HPC)): 75 % of control
- T/C (endpoint: median tumor weight change, dose: 200.0 mg/kg/injection, schedule: Q01DX001 (ip), vehicle: Klucel (hydroxypropylcellulose) (HPC)): 46 % of control
- T/C (endpoint: median tumor weight change, dose: 225.0 mg/kg/injection, schedule: Q01DX001 (ip), vehicle: Klucel (hydroxypropylcellulose) (HPC)): 66 % of control
- T/C (endpoint: median tumor weight change, dose: 400.0 mg/kg/injection, schedule: Q01DX001 (ip), vehicle: Klucel (hydroxypropylcellulose) (HPC)): 52 % of control
- T/C (endpoint: median tumor weight change, dose: 450.0 mg/kg/injection, schedule: Q01DX001 (ip), vehicle: Klucel (hydroxypropylcellulose) (HPC)): 101 % of control
- T/C (endpoint: median tumor weight change, dose: 450.0 mg/kg/injection, schedule: Q01DX001 (ip), vehicle: saline with Tween-80): 101 % of control

Compound: N=C(N)Sc1ccccn1
- T/C (endpoint: median tumor weight (est.), dose: 12.5 mg/kg/injection, schedule: Q07DX005 (ip), vehicle: suspension in saline): 156 % of control
- T/C (endpoint: median tumor weight (est.), dose: 25.0 mg/kg/injection, schedule: Q07DX005 (ip), vehicle: suspension in saline): 113 % of control
- T/C (endpoint: median tumor weight (est.), dose: 50.0 mg/kg/injection, schedule: Q07DX005 (ip), vehicle: suspension in saline): 103 % of control
- T/C (endpoint: median tumor weight (est.), dose: 400.0 mg/kg/injection, schedule: Q07DX005 (ip), vehicle: suspension in saline): 121 % of control

Compound: O=Cc1ccc(C(Cl)(Cl)Cl)cc1
- T/C [6]: 94 % of control
- T/C (endpoint: median tumor weight (est.), dose: 25.0 mg/kg/injection, schedule: Q07DX005 (ip), vehicle: saline with Tween-80): 55 % of control
- T/C (endpoint: median tumor weight (est.), dose: 50.0 mg/kg/injection, schedule: Q07DX005 (ip), vehicle: saline with Tween-80): 97 % of control
- T/C (endpoint: median tumor weight (est.), dose: 100.0 mg/kg/injection, schedule: Q07DX005 (ip), vehicle: saline with Tween-80): 68 % of control
- T/C (endpoint: median tumor weight (est.), dose: 200.0 mg/kg/injection, schedule: Q07DX005 (ip), vehicle: saline with Tween-80): 81 % of control

Compound: COC(=O)Nc1cccc(-c2nc3ccc(NC(=O)OC)cc3c(=O)n2-c2ccccc2)c1
- T/C [5]: 180 % of control
- T/C (endpoint: mean tumor weight, dose: 100.0 mg/kg/injection, schedule: Q07DX006 (ip), vehicle: saline): 167 % of control
- T/C (endpoint: median tumor weight (est.), dose: 12.5 mg/kg/injection, schedule: Q04DX005 (ip), vehicle: saline): 101 % of control
- T/C (endpoint: median tumor weight (est.), dose: 12.5 mg/kg/injection, schedule: Q07DX004 (ip), vehicle: saline): 79 % of control
- T/C (endpoint: median tumor weight (est.), dose: 25.0 mg/kg/injection, schedule: Q07DX004 (ip), vehicle: saline): 103 % of control
- T/C (endpoint: median tumor weight (est.), dose: 50.0 mg/kg/injection, schedule: Q04DX005 (ip), vehicle: saline): 109 % of control
- T/C (endpoint: median tumor weight (est.), dose: 50.0 mg/kg/injection, schedule: Q07DX004 (ip), vehicle: saline): 88 % of control
- T/C (endpoint: median tumor weight (est.), dose: 200.0 mg/kg/injection, schedule: Q04DX005 (ip), vehicle: saline): 88 % of control
- T/C (endpoint: median tumor weight (est.), dose: 200.0 mg/kg/injection, schedule: Q07DX004 (ip), vehicle: saline): 113 % of control
- T/C (endpoint: median tumor weight (est.), dose: 400.0 mg/kg/injection, schedule: Q07DX004 (ip), vehicle: saline): 101 % of control

Compound: O=Cc1c(O)c2ccccc2[nH]c1=O
- T/C (endpoint: median tumor weight change, dose: 62.0 mg/kg/injection, schedule: Q01DX001 (ip), vehicle: saline with Tween-80): 112 % of control
- T/C [1]: 69 % of control
- T/C [3]: 61 % of control and 67 % of control
- T/C [4]: 55 % of control

Compound: C1CN2CCC1CC2
- T/C (endpoint: median tumor weight (est.), dose: 6.25 mg/kg/injection, schedule: Q07DX005 (ip), vehicle: saline with Tween-80): 111 % of control
- T/C [6]: 77 % of control

Compound: OCC1OC(n2cnc3c2nnn2ccnc32)C(O)C1O (configuration not stated)
- T/C (endpoint: mean tumor weight, dose: 37.5 mg/kg/injection, schedule: Q07DX005 (ip), vehicle: saline): 93 % of control and 94 % of control
- T/C (endpoint: mean tumor weight, dose: 75.0 mg/kg/injection, schedule: Q07DX005 (ip), vehicle: saline): 202 % of control and 91 % of control
- T/C (endpoint: mean tumor weight, dose: 150.0 mg/kg/injection, schedule: Q07DX005 (ip), vehicle: saline): 103 % of control and 118 % of control
